From PubChem BioAssay (NCI)
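Cells were grown in 96-well plates and exposed to each compound for 48 hours at five concentrations; endpoints were interpolated linearly between bracketing concentrations, or set to the highest concentration if not reached. Definition used: TGI = concentration required for complete inhibition of growth.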

Columns and labels:
Test in all cases: NCI-60 cell line screen, 48 h
PC-3 prostate = system: PC-3 prostate
SK-MEL-28 melanoma = system: SK-MEL-28 melanoma
786-0 renal = system: 786-0 renal
UACC-62 melanoma = system: UACC-62 melanoma
SR leukemia = system: SR leukemia
HCT-116 colon = system: HCT-116 colon
U251 CNS = system: U251 CNS
HS 578T breast = system: HS 578T breast
T-47D breast = system: T-47D breast
IGROV1 ovarian = system: IGROV1 ovarian
HCC-2998 colon = system: HCC-2998 colon
UO-31 renal = system: UO-31 renal
SK-OV-3 ovarian = system: SK-OV-3 ovarian
COLO 205 colon = system: COLO 205 colon
MCF7 breast = system: MCF7 breast
NCI/ADR-RES ovarian = system: NCI/ADR-RES ovarian
KM12 colon = system: KM12 colon
MOLT-4 leukemia = system: MOLT-4 leukemia
SN12C renal = system: SN12C renal
NCI-H460 lung = system: NCI-H460 lung
HL-60(TB) leukemia = system: HL-60(TB) leukemia
OVCAR-3 ovarian = system: OVCAR-3 ovarian
CAKI-1 renal = system: CAKI-1 renal
LOX IMVI melanoma = system: LOX IMVI melanoma
SW-620 colon = system: SW-620 colon
SNB-19 CNS = system: SNB-19 CNS
TK-10 renal = system: TK-10 renal
MDA-N = system: MDA-N
HOP-62 NSCLC = system: HOP-62 NSCLC
M14 melanoma = system: M14 melanoma
SF-539 CNS = system: SF-539 CNS
A498 renal = system: A498 renal
OVCAR-5 ovarian = system: OVCAR-5 ovarian
SK-MEL-2 melanoma = system: SK-MEL-2 melanoma
EKVX NSCLC = system: EKVX NSCLC
SF-268 CNS = system: SF-268 CNS
SK-MEL-5 melanoma = system: SK-MEL-5 melanoma
ACHN renal = system: ACHN renal
HT29 colon = system: HT29 colon
MALME-3M melanoma = system: MALME-3M melanoma
CCRF-CEM leukemia = system: CCRF-CEM leukemia
HOP-92 NSCLC = system: HOP-92 NSCLC
MDA-MB-435 = system: MDA-MB-435
OVCAR-8 ovarian = system: OVCAR-8 ovarian
K-562 leukemia = system: K-562 leukemia
NCI-H226 lung = system: NCI-H226 lung
SNB-75 CNS = system: SNB-75 CNS
UACC-257 melanoma = system: UACC-257 melanoma
OVCAR-4 ovarian = system: OVCAR-4 ovarian
RXF 393 renal = system: RXF 393 renal
MDA-MB-231 breast = system: MDA-MB-231 breast
RPMI-8226 leukemia = system: RPMI-8226 leukemia
HCT-15 colon = system: HCT-15 colon
BT-549 breast = system: BT-549 breast
DU-145 prostate = system: DU-145 prostate
NCI-H23 lung = system: NCI-H23 lung
NCI-H522 lung = system: NCI-H522 lung
SF-295 CNS = system: SF-295 CNS
A549 NSCLC = system: A549 NSCLC

COc1cc(CNc2c3ccccc3nc3ccccc23)cc(OC)c1OC
TGI (PC-3 prostate): 11.9 µM | TGI (SK-MEL-28 melanoma): 20.2 µM | TGI (786-0 renal): 14.3 µM | TGI (UACC-62 melanoma): 7.74 µM | TGI (SR leukemia): 7.58 µM | TGI (HCT-116 colon): 11.2 µM | TGI (U251 CNS): 19.5 µM | TGI (HS 578T breast): 29.8 µM | TGI (T-47D breast): 41.9 µM | TGI (IGROV1 ovarian): 25.2 µM | TGI (HCC-2998 colon): 11.9 µM | TGI (UO-31 renal): 11.5 µM | TGI (SK-OV-3 ovarian): 28.4 µM | TGI (COLO 205 colon): 7.14 µM | TGI (MCF7 breast): > 32.9 µM | TGI (NCI/ADR-RES ovarian): 14.2 µM | TGI (KM12 colon): 21.3 µM | TGI (MOLT-4 leukemia): > 22 µM | TGI (SN12C renal): 15.3 µM | TGI (NCI-H460 lung): 8.18 µM | TGI (HL-60(TB) leukemia): > 21.3 µM | TGI (OVCAR-3 ovarian): 30.2 µM | TGI (CAKI-1 renal): 14.1 µM | TGI (LOX IMVI melanoma): 6.75 µM | TGI (SW-620 colon): 10.1 µM | TGI (SNB-19 CNS): 24.3 µM | TGI (TK-10 renal): 37.5 µM | TGI (MDA-N): 13 µM | TGI (HOP-62 NSCLC): 11.7 µM | TGI (M14 melanoma): 8.76 µM | TGI (SF-539 CNS): 15.7 µM | TGI (A498 renal): 7.71 µM | TGI (OVCAR-5 ovarian): 14.6 µM | TGI (SK-MEL-2 melanoma): 5.66 µM | TGI (EKVX NSCLC): 21.4 µM | TGI (SF-268 CNS): 16.5 µM | TGI (SK-MEL-5 melanoma): 7.83 µM | TGI (ACHN renal): 14.4 µM | TGI (HT29 colon): 14.3 µM | TGI (MALME-3M melanoma): 12.5 µM | TGI (CCRF-CEM leukemia): > 23.2 µM | TGI (HOP-92 NSCLC): 16.7 µM | TGI (MDA-MB-435): 12.9 µM | TGI (OVCAR-8 ovarian): 14 µM | TGI (K-562 leukemia): 2 µM | TGI (NCI-H226 lung): 10.3 µM | TGI (SNB-75 CNS): 13.9 µM | TGI (UACC-257 melanoma): 11.2 µM | TGI (OVCAR-4 ovarian): 20.3 µM | TGI (RXF 393 renal): 9.04 µM | TGI (MDA-MB-231 breast): 23.6 µM | TGI (RPMI-8226 leukemia): > 27.3 µM | TGI (HCT-15 colon): 14 µM | TGI (BT-549 breast): 16.2 µM | TGI (DU-145 prostate): > 52.1 µM | TGI (NCI-H23 lung): 18.5 µM | TGI (NCI-H522 lung): 11.6 µM | TGI (SF-295 CNS): 14.4 µM | TGI (A549 NSCLC): 12.7 µM
